Key:
Format in all cases: biochemical
PYK-F = molecular target: T1, PYK-F (Escherichia coli, UniProt P0AD61); assay: direct 1H NMR kinetic assay (pyruvate methyl peak); conditions: 2 mM PEP, 4 mM ADP, pH 7.5, 10 °C, no ribosomes; 0-8x of 50 μg/mL
T1 construct: gene pykF; full length, 470 residues, 50 kDa monomer, N-terminal 6xHis tag kept, pET-28a(+), expressed in E. coli BL21(DE3), Ni-NTA purified, homotetramer

PFK-A = molecular target: T2, PFK-A (Geobacillus stearothermophilus, UniProt P00512); assay: direct 1H NMR kinetic assay (FBP peak); conditions: substrate inhibition; 1 mM F6P, 1 nM enzyme, pH 7.5, 10 mM sodium phosphate, 50 mM KCl, 10 mM MgCl2, 10 °C, no ribosomes
T2 construct: gene pfkA; commercial lyophilized enzyme (Sigma-Aldrich)

LDH-A = molecular target: T3, LDH-A (Escherichia coli, UniProt P52643, form not given, species not given); assay: direct 1H NMR kinetic assay (lactate methyl peak); conditions: substrate inhibition; 0.5 mM NADH, 0.04 nM enzyme, pH 7.5, 10 mM sodium phosphate, 50 mM KCl, 10 mM MgCl2, 10 °C, no ribosomes
T3 construct: gene ldhA; commercial recombinant enzyme (Sigma-Aldrich); authors doubt its source; printed P33232 is the quinone-dependent LldD, not an NADH-dependent LDH, so identity unresolved

Row | SMILES | reduced activity (PYK-F) | further results
1 | NC[C@H]1O[C@H](O[C@H]2[C@H](O)[C@@H](O[C@H]3O[C@H](CO)[C@@H](O)[C@H](N)[C@H]3O)[C@H](N)C[C@@H]2N)[C@H](O)[C@@H](O)[C@@H]1O [Kan] | Ths, Kan and Str reduced PYK-F activity in both the presence and absence of ribosomes | 
2 | Nc1ncnc2c1ncn2[C@@H]1O[C@H](COP(=O)(O)OP(=O)(O)OP(=O)(O)O)[C@@H](O)[C@H]1O [ATP] |  | KI (PFK-A): 5.6 ± 1.2 mM
3 | CC(=O)C(=O)O [PYR] |  | KI (LDH-A): 0.495 ± 0.074 mM
4 | CN[C@@H]1[C@H](O[C@H]2[C@H](O[C@H]3[C@H](O)[C@@H](O)[C@H](N=C(N)N)[C@@H](O)[C@@H]3N=C(N)N)O[C@@H](C)[C@]2(O)C=O)O[C@@H](CO)[C@H](O)[C@H]1O [Str] | Ths, Kan and Str reduced PYK-F activity in both the presence and absence of ribosomes | 
